A short description of series [1]: Metabolic stability in liver S9 fraction. In kind it is in vitro ADME. On the procedure: Metabolic Stability. All compounds were tested at the final concentration of 1 µM in a 50 mM potassium phosphate buffer (pH 7.4) containing 1% DMSO as vehicle. For microsomes assay, the incubation mixtures contained 0.15 mg of Human liver microsomes (Sigma-Aldrich, St. Louis, MO, United States), 5 mM MgCl2, 1 mM NADPH, 5 mM glucose 6-phosphate, 0.4 U mL^−1 glucose 6-phosphate dehydrogenase. For S9 fraction analysis, the buffer contained 0.15 mg of S9 proteins (Sigma-Aldrich, St. Louis, MO, United States), 0.3 mM NADPH, 5.6 mM glucose-6-phosphate, 0.6 units/mL glucose-6-phosphate dehydrogenase, 5.8 mM UDP-glucuronic acid, 0.05 mM acetyl-CoA, 0.5 mM dithiothreitol, 0.5 mM 3′-phosphoadenosine 5′-phosphosulfate, 1 mM glutathione, 0.2 mM acetyl carnitine, 4 units/mL carnitine acetyl transferase, 0.5 mM glycine, and 0.5 mM taurine.
Samples were kept at 37°C and aliquots were removed at 0, 5, 15, 30, 45, 60, 90, 120, 150 min after protein additions. The reaction was stopped by adding 200 µL of ice-cold acetonitrile to withdrawn aliquots. After 2 h, samples were centrifuged for 10 min at 10,000 rpm, and supernatants were subjected to LC-MS/MS analysis. […]
In vitro intrinsic clearance (Clint expressed as µL/min/mg) was calculated according to the following formula: Clint = Vx 0.693/t1/2 were V = volume of reaction (µL)/protein in the incubation (mg). […]

The test system of series [2] is C57BL/6J male mice fed HFD-F. The series can be described thus: HFD-F mouse model of NAFLD/NASH (body weight, OGTT, biochemistry, histopathology, adipose tissues). In kind it is in vivo. Conditions: 30 mg/kg/day by gavage. The source says: C57BL/6J male mice were fed a high fat diet (HFD) containing 59 KJ% fat plus 1% cholesterol, w/o sugar (ssniff ® EF R/M acc. D12330 mod. 22,7 ME/kg) and fructose (HFD-F) in drinking water (42 g/L), or normal chow diet for 61 days. Food intake was estimated as the difference of weight between the offered and the remnant amount of food at 3-days intervals. The food was provided as pressed pellets and the residual spillage was not considered. After 7 days, HFD-F mice were randomized to receive HFD-F alone or in combination with compound 2 (30 mg/kg/day) by gavage until the end of the experiment. Doses of each agent were chosen according to previously published data. Mice were housed under controlled temperature (22°C) and photoperiods (12:12-h light/dark cycle), allowed unrestricted access to standard mouse chow and tap water. The experimental protocol was approved by the Animal Care and Use Committee of the University of Perugia and by the Italian Minister of Health and Istituto Superiore di Sanità (Italy) and was in agreement with the European guidelines for use of experimental animals (permission n. 583/2017-PR). The general health of the animals was monitored daily by the Veterinarian in the animal facility. At the day of sacrifice, fed mice were deeply anesthetized with a mixture of tiletamine hypochloride and zolazepam hypochloride/xylazine at a dose of 50/5 mg/kg and sacrificed before 12 a.m.
Body weight and body length (nose-to-anus or nose–anus length) were measured in anesthetized mice at the time of sacrifice and were used to calculate the body mass index (BMI) (=body weight (g)/length^2 (cm^2)) and the Lee index (=cube root of body weight (g)/nose-to-anus length (cm)).
AST, ALT, total- and HDL-cholesterol, and triglycerides plasmatic levels were quantified using an automated clinical chemistry analyzer (Cobas, Roche).
After 8 weeks of HFD-F mice were fasted overnight and orally administered glucose (1.5 g/kg body weight) for OGTT. The blood glucose concentrations were measured at 0, 15, 30, 60, 90, and 120 min after feeding or injection using a portable glucose meter (Accu-Check Go, Roche).
Temperature of brown adipose tissue (BAT) was recorded through the study using a noninvasive technology. Briefly, mice were maintained at 25°C and the thermal images were taken by a FLIR E6 thermal imaging camera (FLIR System, Wilsonville, Oregon) and the surface temperature quantified by the FLIR Tools.
For histological examination, portions of the right and left liver lobes were fixed in 10% formalin, embedded in paraffin, sectioned and stained with Sirius red and/or Hematoxylin/Eosin (H&E), for morphometric analysis ([Fiorucci et al., 2004]). NASH severity (steatosis, hepatocytes ballooning, lobular inflammation, and portal inflammation) was scored in H&E-stained cross sections using an adapted grading system of human NASH as described previously ([Carino et al., 2017b]).

A short description of the next series: LogD octanol/PBS pH 7.4. The format is physicochemical. On the procedure: LogD. Measurements 40 µL of selected compounds were dissolved in 1960 µL of PBS pH 7.4/Octanol. Samples were shacked for 2 h at rt, 10 µL of each phase were withdrawn, diluted in 490 µL of MeOH, and analyzed by LC-MSMS. The ratio of mass signal area obtained in octanol and PBS at pH 7.4 and in organic solvent was employed to calculate LogD.

Series [3] can be described thus: In vivo stability: amount of compound 2 in plasma of mice. The conditions noted are these: 30 mg/kg. On the procedure: The amount of compound 2 in plasma samples of animals treated with compound 2 was evaluated measuring the peak area of the compound at 1, 6, and 24 h after administration. 50 μL of plasma samples were mixed with 200 μL of acetonitrile, vortexed and incubated for 1 h on ice. Samples were then centrifuged for 10 min at 10,000 rpm and supernatants were evaporated to dryness. For LC/MS-MS analysis a QTRAP 6500 System (AB Sciex) equipped with Shimadzu LC-20A LC and AutoSampler was employed. […] The transition 356 →143 was employed for quantification. The following parameters were set: positive mode, DP 120 eV, EP 12 eV, CE 40 eV, CXP 23 V, CUR 30 psi, CAD Medium, IS 5500 V, TEM 350°C, GS1 and GS2 50 psi.
Given the promising results obtained during in vitro pharmacokinetics studies, the profile of disappearance of compound 2 was also evaluated in vivo. Mice were treated with compound 2 and plasma samples withdrawn 1, 6, and 24 h after administration were analyzed by LC-MSMS to evaluate the concentration of compound 2.

The record followed here is paper PMC9085577, “Discovery of a Potent and Orally Active Dual GPBAR1/CysLT1R Modulator for the Treatment of Metabolic Fatty Liver Disease” (Frontiers in Pharmacology, 2022).

Broadly, the microsomal CLint is the capacity of the preparation to metabolise the compound, expressed as a volume cleared per time. A low value points to greater metabolic stability. As usually defined, the logD is the decadic logarithm of the distribution of all forms, ionised or not, between an organic phase and buffer at a given pH. High values mean a more lipophilic compound, low ones a more hydrophilic compound. For `O=C(O)c1cccc(-c2ccc(OCc3ccc4ccccc4n3)cc2)c1` [Compound 2, 4'-(quinolin-2-ylmethoxy)-[1,1′-biphenyl]-3-carboxylic acid], the microsomal CLint at 1 µM in series [1] (pH 7.4) was found to be 6 µL/min/mg. Besides, in series [1] (pH 7.4, read-out: S9 fraction t1/2), the half-life at 1 µM came out at 6.42 h. In series [2], the ALT plasma levels entry is recorded as “reduced”, the AST plasma levels entry is given as “reduced”, the “body mass index (BMI)” value is reported as “reduced” and the eWAT weight entry is recorded as “reduced”. In series [2], the “insulin sensitivity (OGTT)” value is listed as “increased”; the “liver fibrosis and collagen deposition (Sirius red)” value was “robustly attenuated”; the “liver steatosis and hepatocytes ballooning (H&E)” value is “highly effective in reversing these features”; the liver weight entry is reported as “reversed the effect exerted by the diet”. In series [2], the proatherogenic lipid profile entry is on record as “partially reversed”, the “ratio of BAT weight/body weight” value is on record as “reduced”, the “ratio of eWAT weight/body weight” value was “reduced these changes” and the “volume of BAT” value is listed as “reduced”. In addition, the body weight gain result in series [2] (54 days) is listed as “reduced”. In addition, the LogD entry in the series “LogD octanol/PBS pH 7.4” was “proper”. For the same molecule, the logD at 2 h in “LogD octanol/PBS pH 7.4” (octanol/PBS) was 2. In addition, in series [3] (6 h after administration), the “compound remaining in plasma” value is “considerable percentage of compound 2 is still present”. For the same molecule, the “compound remaining in plasma” value in series [3] (24 h after administration) is “approximately 20%”.
